Experimental data: ChEMBL document CHEMBL5634070, “Assessment of the structure-activity relationship and antileukemic activity of diacylpyramide compounds as human ClpP agonists” (Eur J Med Chem, 2023)

Experiments:
[1] = molecular target: T1, ATP-dependent Clp protease proteolytic subunit, mitochondrial (Homo sapiens, UniProt Q16740); assay: Agonist activity at human CLpP by measuring alpha-casein hydrolysis using alpha-casein as substrate preincubated for 10 mins followed by substrate addition and measured after 120 mins by Coomassie brilliant blue staining based SDS-PAGE assay
T1 sequence (Q16740 whole entry): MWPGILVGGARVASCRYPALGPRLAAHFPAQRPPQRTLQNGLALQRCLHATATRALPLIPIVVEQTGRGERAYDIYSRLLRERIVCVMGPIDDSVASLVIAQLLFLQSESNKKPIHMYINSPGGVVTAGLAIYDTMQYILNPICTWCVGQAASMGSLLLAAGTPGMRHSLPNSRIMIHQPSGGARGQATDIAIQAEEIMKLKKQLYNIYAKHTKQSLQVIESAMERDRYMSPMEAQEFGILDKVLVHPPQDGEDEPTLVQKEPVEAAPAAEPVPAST

MOLM-13 = assay: Antiproliferative activity against human MOLM-13 cells assessed as inhibition of cell growth at 20 uM by CCK-8 assay relative to control; format: functional
[2] = molecular target: T1, ATP-dependent Clp protease proteolytic subunit, mitochondrial; assay: Agonist activity at human CLpP by measuring alpha-casein hydrolysis using alpha-casein as substrate by FITC staining based assay
[3] = molecular target: T1, ATP-dependent Clp protease proteolytic subunit, mitochondrial; assay: Binding affinity to human CLpP assessed as change in melting temperature by DSF assay; conditions: filed as agonist
NB-4 = assay: Inhibition of colony formation in human NB4 cells incubated for 14 days; format: functional, cell-based; conditions: time 14.0 day

EC50 [1] | EC50 [2] | ΔTm [3] | Structure (SMILES) | inhibition at 20 µM (MOLM-13) | inhibition (NB-4)
> 25 µM | – | – | CC[C@H](C)[C@H]1C(=O)N(Cc2cccc3ccccc23)C[C@@H]2N(C(=O)NCC3CCOCC3)CCC(=O)N12 | 6.3% | –
4.6 µM | – | – | CCCCNC(=O)N1CCC(=O)N2[C@@H]([C@@H](C)CC)C(=O)N(Cc3cccc4ccccc34)C[C@H]12 | 23.6% | –
22.8 µM | – | – | O=C1[C@H](Cc2cnc[nH]2)N2C(=O)CCN(C(=O)NCc3ccccc3)[C@H]2CN1Cc1cccc2ccccc12 | 13.4% | –
14.4 µM | – | – | O=C1[C@H](Cc2ccccc2)N2C(=O)CCN(C(=O)NCc3ccccc3)[C@H]2CN1Cc1cccc2ccccc12 | 34% | –
3.3 µM | – | – | CC[C@H](C)[C@H]1C(=O)N(Cc2cccc3ccccc23)C[C@@H]2N(C(=O)NCc3ccc(C)cc3)CCC(=O)N12 | 99.4% | –
7.8 µM | – | – | CC[C@H](C)[C@H]1C(=O)N(Cc2cccc3ccccc23)C[C@@H]2N(C(=O)NCc3ccccc3)CCC(=O)N12 | 97.9% | –
> 25 µM | – | – | CC[C@H](C)[C@H]1C(=O)N(Cc2ccc3ccccc3c2)C[C@@H]2N(C(=O)NCc3ccc(Br)cc3)CCC(=O)N12 | 13.2% | –
> 25 µM | – | – | CC[C@H](C)[C@H]1C(=O)N(Cc2cccc3ccccc23)C[C@@H]2N(C(=O)NCc3ccc(OC)c(OC)c3)CCC(=O)N12 | 35.2% | –
7.1 µM | – | – | O=C1[C@H](Cc2ccc(O)cc2)N2C(=O)CCN(C(=O)NCc3ccccc3)[C@H]2CN1Cc1cccc2ccccc12 | 86.9% | –
> 25 µM | – | – | NC(=O)C[C@H]1C(=O)N(Cc2cccc3ccccc23)C[C@@H]2N(C(=O)NCc3ccccc3)CCC(=O)N21 | 5.5% | –
8.7 µM | – | – | CC[C@H](C)[C@H]1C(=O)N(Cc2cccc3ccccc23)C[C@@H]2N(C(=O)NCc3ccc(F)cc3Cl)CCC(=O)N12 | 99.8% | –
11.2 µM | – | – | CC[C@H](C)[C@H]1C(=O)N(Cc2cccc3ccccc23)C[C@@H]2N(C(=O)NCC3CCCCC3)CCC(=O)N12 | 99.5% | –
10.9 µM | – | – | CC[C@H](C)[C@H]1C(=O)N(Cc2cccc3ccccc23)C[C@@H]2N(C(=O)NCc3cc(F)c(F)c(F)c3)CCC(=O)N12 | 99.5% | –
14.1 µM | – | – | CC[C@H](C)[C@H]1C(=O)N(Cc2cccc3ccccc23)C[C@@H]2N(C(=O)CCc3ccccc3)CCC(=O)N12 | 92% | –
7.2 µM | – | – | CC(C)C[C@H]1C(=O)N(Cc2cccc3ccccc23)C[C@@H]2N(C(=O)NCc3ccccc3)CCC(=O)N21 | 82.5% | –
3.8 µM | – | – | CC[C@H](C)[C@H]1C(=O)N(Cc2ccc(F)c3ccccc23)C[C@@H]2N(C(=O)NCc3ccc(Br)cc3)CCC(=O)N12 | 97.7% | –
4.3 µM | – | – | CC[C@H](C)[C@H]1C(=O)N(Cc2cccc3ccccc23)C[C@@H]2N(C(=O)NC(C)(C)c3ccccc3)CCC(=O)N12 | 46.3% | –
5.6 µM | – | – | CC[C@H](C)[C@H]1C(=O)N(Cc2cccc3ccccc23)C[C@@H]2N(C(=O)NCc3ccc(Br)cc3F)CCC(=O)N12 | 98% | –
5.2 µM | – | – | CC[C@H](C)[C@H]1C(=O)N(Cc2cccc3ccccc23)C[C@@H]2N(C(=O)NCc3ccc(I)cc3)CCC(=O)N12 | 97.5% | –

EC50 [1] | EC50 [2] | ΔTm [3] | Structure (SMILES) | inhibition at 20 µM (MOLM-13) | inhibition (NB-4)
10.6 µM | – | – | CC[C@H](C)[C@H]1C(=O)N(Cc2cccc3ccccc23)C[C@@H]2N(C(=O)NCc3ccc4ccccc4c3)CCC(=O)N12 | 99.3% | –
2.7 µM | – | – | CC[C@H](C)[C@H]1C(=O)N(Cc2cccc3ccccc23)C[C@@H]2N(C(=O)NCc3ccc(Cl)cc3)CCC(=O)N12 | 98.3% | –
10.4 µM | – | – | CC[C@H](C)[C@H]1C(=O)N(Cc2cccc3ccccc23)C[C@@H]2N(C(=O)CCc3ccc(F)cc3)CCC(=O)N12 | 58.2% | –
> 25 µM | – | – | CC[C@H](C)[C@H]1C(=O)N(Cc2cccc3ccccc23)C[C@@H]2N(C(=O)NCc3c(F)cc(Br)cc3F)CCC(=O)N12 | 99.1% | –
2.8 µM | 1.19 µM | 16.4 °C | CC[C@H](C)[C@H]1C(=O)N(Cc2cccc3ccccc23)C[C@@H]2N(C(=O)NCc3ccc(Br)cc3)CCC(=O)N12 | 99.7% | Dose-Dependent Effect
5.8 µM | – | – | CC[C@H](C)[C@H]1C(=O)N(Cc2cccc3ccccc23)C[C@@H]2N(C(=O)NCc3ccc4c(c3)OCO4)CCC(=O)N12 | 78.6% | –
5.4 µM | – | – | CC[C@H](C)[C@H]1C(=O)N(Cc2cccc3ccccc23)C[C@@H]2N(C(=O)NCc3ccc(F)c(OC)c3)CCC(=O)N12 | 98.1% | –
> 25 µM | – | – | CC[C@H](C)[C@H]1C(=O)N(Cc2cccc3ccccc23)C[C@@H]2N(C(=O)NCc3cc(Br)cc(Br)c3)CCC(=O)N12 | 98.4% | –
15.9 µM | – | – | CSCC[C@H]1C(=O)N(Cc2cccc3ccccc23)C[C@@H]2N(C(=O)NCc3ccccc3)CCC(=O)N21 | 24.4% | –
7.7 µM | – | – | CC[C@H](C)[C@H]1C(=O)N(Cc2cccc3ccccc23)C[C@@H]2N(C(=O)NCc3ccc(C(F)(F)F)cc3)CCC(=O)N12 | 95.3% | –
3.6 µM | – | – | CC[C@H](C)[C@H]1C(=O)N(Cc2cccc3ccccc23)C[C@@H]2N(C(=O)NCc3cc(F)c(Br)c(F)c3)CCC(=O)N12 | 99.1% | –
3.4 µM | – | – | CC[C@H](C)[C@H]1C(=O)N(Cc2cccc3ccccc23)C[C@@H]2N(C(=O)NCc3ccc(F)c(Cl)c3)CCC(=O)N12 | 97.9% | –
> 25 µM | – | – | CC[C@H](C)[C@H]1C(=O)N(Cc2cccc3ccccc23)C[C@@H]2N(C(=O)NCc3ccc(C(C)C)cc3)CCC(=O)N12 | 97.7% | –
3.6 µM | – | – | CC[C@H](C)[C@H]1C(=O)N(Cc2cccc3ccccc23)C[C@@H]2N(C(=O)NCc3ccc(F)c(Br)c3)CCC(=O)N12 | 97.6% | –
3.4 µM | – | – | CC[C@H](C)[C@H]1C(=O)N(Cc2cccc3ccccc23)C[C@@H]2N(C(=O)NCc3ccc(OC)cc3)CCC(=O)N12 | 99.4% | –
14.9 µM | – | – | CC[C@H](C)[C@H]1C(=O)N(Cc2cccc3c2OCO3)C[C@@H]2N(C(=O)NCc3ccc(Br)cc3)CCC(=O)N12 | 44.4% | –
15.9 µM | – | – | CC[C@H](C)[C@H]1C(=O)N(Cc2cccc3ccccc23)C[C@@H]2N(C(=O)NCc3c(F)c(F)c(F)c(F)c3F)CCC(=O)N12 | 99.9% | –
3.7 µM | – | – | CC[C@H](C)[C@H]1C(=O)N(Cc2cccc3ccccc23)C[C@@H]2N(C(=O)NCc3ccc(F)c(F)c3)CCC(=O)N12 | 99.6% | –
